This is an account of results in patent US20250270549A1, “MSI2 AS A THERAPEUTIC TARGET FOR THE TREATMENT OF MYOTONIC DYSTROPHY” (UNIVERSITAT DE VALÈNCIA, priority 2021, published 2025).

One data set deals with MSI2 transcripts. The data set can be described thus: MSI2 relative expression (transcripts) by RT-qPCR in muscle cells. Type of data set: cell-based, H. sapiens. The procedure: (§1) TDMs were cultured as previously described^1. After 4 days in differentiation medium (MDM), cells were transfected with a combination of two siRNAs (SEQ ID NO: 40 and 43) targeting MSI2 transcripts (final concentration 100 nM) using Lipofectamine RNAiMAX transfection reagent (Invitrogen, Madrid, Spain)) following the manufacturer's recommendations. After 48 h, the medium containing the siRNAs was replaced by fresh MDM. 24 h later, cells were collected. As a control, the same protocol was performed using 100 nM of a siRNA with a scrambled sequence (Cat #4390843 for negative control). Gapmers against MSI2 and agomiR-107 were transfected following the same protocol using two different concentrations, 30 and 150 nM in the case of Gapmers and 100 and 300 nM in the case of agomiR-107. To treat cells with the small molecule Ro-08-2750 (Tocris Cat. No. 2272, Bristol, UK)), cells were cultured as before. Briefly, after 96 h in MDM, the medium was supplemented with Ro-08-2750 at a final concentration of 10 μM (0.8% DMSO) or with the vehicle, DMSO 0.8%, for 48 h. Then cells were collected for further analyses.
(§2) All the procedures were performed as previously described^1.

The next data set has as its system miR-7. The data set can be described thus: miR-7 quantification by RT-qPCR in MD1 cells. It is filed as cell-based, human. The following applies: MD1 cells, * significant. Here is the method:
as §1, §2

Another data set relates to TGFBR1. The data set can be described thus: TGFBR1 expression by RT-qPCR in MD1 muscle cells. The following applies: DM1 TDMs; 150 nM. It is filed as cell-based, H. sapiens. Here is the method: as §1, §2
For the next data set, the system named is MD1 TDMs. The data set can be described thus: Desmin immunostaining: myogenic fusion index and myotube diameter. To be noted: MD1 myotubes; 30 nM. It is filed as cell-based, human. The procedure:
as §1
Desmin immunostaining and fusion index and diameter determination were performed as previously described^3. For MSI2 immunodetection, 3.5×10^4 fibroblasts/well were seeded in 24 well plates. After 7 days of differentiation into myotubes, cells were fixed with 4% paraformaldehyde (PFA) for 15 min. After 3 washes with PBS-T (0.1%×-TritonX-100 in PBS 1×) cells were blocked (PBS-T, 1% BSA, 5% normal goat serum) for 1 h and incubated with rabbit anti-MSI2 antibody (1:100, Abcam, EP1305Y, Cambridge, UK) in blocking buffer for 48 h at 4° C. After three washes with PBS-T, cells were incubated for 1 h with goat anti-rabbit-FITC IgG (1:200, Sigma-Aldrich, St. Louis, Missouri) in blocking buffer. Finally, cells were washed thrice with PBS 1× and were counterstained and mounted with VECTASHIELD® mounting medium containing DAPI (Vector Laboratories, London, UK) to detect the nuclei. Images were taken in a confocal microscope LSM800 (Zeiss) at 400× magnification.

The subject of the next data set is AKT. The data set can be described thus: AKT pathway activation: phospho (Ser473)-AKT-to-total-AKT ratio. Type of data set: cell-based, human. To be noted: DM1 TDMs; 150 nM. The procedure: (§3) FIG. 10. Inhibition of MSI2 expression in DM1 TDMs restores impaired autophagic markers. (A) qRT-PCR quantification of the relative expression of the indicated genes involved in different autophagy pathway steps in DM1 and control (green dashed lines) myotubes. Statistical analyses were performed comparing DM1 versus controls. (B) Analyses of the expression of genes quantified in (A) in DM1 myotubes treated with ASOs targeting MSI2 transcripts. All comparisons for the statistical analyses were performed using their corresponding scrambled control (dashed lines). […] Quantification and representative western blots of (C) ATG4A, (D) ATG7, (E) AKT-P/AKT total protein levels, and (F) LC3-II/LC3-I ratio in DM1 TDMs treated with MSI2 targeting or scrambled ASOs at the indicated concentrations. Green dashed lines indicate protein expression levels in control myotubes. β-actin was used as an endogenous control to normalize protein levels (n=3). The bar graphs show mean #SEM. * p<0.05, ** p<0.01, *** p<0.001, and **** p<0.0001 according to Student's t test.
Protein extraction, quantification and immunodetection were performed as previously described^1,3. Specifically, MSI2 detections were performed by incubating membranes overnight with a rabbit anti-MSI2 antibody (1:1000, Abcam, EP1305Y, Cambridge, UK). […] Quantification was performed using ImageJ software (NIH).

The test system of a further data set is LC3. The data set can be described thus: LC3 immunostaining and LC3 puncta quantification. It is filed as cell-based, human. To be noted: DM1 TDMs; compared to scrambled ASO at the same concentration. Here is the method:
For LC3B immunodetection, cells were differentiated in MDM for 7 days (3×10^5 cells/well in 24-well plates). After 48 h of gapmer treatment, cells were fixed with 4% PFA in PBS for 15 min at room temperature. After fixation, cells were permeabilized with methanol 100% for 15 min at −20° C. and blocked with blocking buffer (PBS 1×, 0.5% BSA, 1% goat serum) for 1 h at room temperature. Cells were incubated overnight (O/N) with rabbit anti-LC3B (1:200, ab51520; Abcam, Cambridge, UK) diluted in blocking buffer. Then, samples were incubated with goat anti-rabbit IgG (H+L) Alexa Fluor Plus 594 (1:200; Invitrogen, Carlsbad, CA, USA) for 2 h. Between antibodies, cells were washed three times with PBS 1×. Finally, cells were washed three times with PBS and mounted in Vectashield (Vector Laboratories, London, UK) with […] DAPI.
Image analyses of LC3-stained myotubes were performed using the Ifdotmeter software following the authors' recommendations (see Rodríguez-Arribas, M., et al. (2016). IFDOTMETER: A New Software Application for Automated Immunofluorescence Analysis. J. Lab. Autom. 21, 246-259). Briefly, the quantification of the number of LC3 dots or LC3 puncta was performed with 15-20 images per condition. Total LC3 dots per image were normalized relative to the total area corresponding to all myotubes observed in each image. Myotube area was measured by using ImageJ software. Data were expressed as the number of LC3 dots/mm2.

The subject of data set [1] is ATG3, ATG4A, ATG5, ATG7, and mTOR. The data set can be described thus: qRT-PCR of autophagy pathway genes in DM1 TDMs. It is filed as cell-based, human. To be noted: highest concentration (150 nM). The procedure: as §3, §2

l = locked nucleic acid (LNA); d = 2'-deoxy (DNA)

Experimental for Human CNT myotubes: (A) Cell growth inhibition assay by MTS method. Human CNT myotubes were transfected with increasing concentrations of ASO1, 2 and 3 (n=4). […] Vertical dashed lines indicate used concentrations in the following experiments: 30 and 150 nM.
Non-DM control (Ctrl) cells (CNT) were aliquoted in 96-well plates with 1.0×10^5 cells per well. After 24 h, cells were transfected as described with different ASOs (concentrations ranging from 1 nM to 1 μM) or treated with Ro-08-2750 (Tocris Bioscience, Bristol, UK) at concentrations ranging from 0.0195 up to 80 μM (in 1:2 serial dilutions). Cell viability was measured as previously described^3.

Consider “ASO1: gapmer antisense oligonucleotide against MSI2 transcript, SEQ ID NO: 76 (38), 5′ +T+G+A*C*T*T*C*T*T*T*C*G*G+C+T+G 3′, LNA ends, phosphorothioate linkages (antisense TGACTTCTTTCGGCTG; sugars from the 5' end l3 d10 l3, backbone and methylation of C not given here; further chemistry not fully specified)”, for which the “MSI2 relative expression upon transfection” value in the data set on MSI2 transcripts (DM1 TDMs, 30 and 150 nM) is on record as “significant reduction”. Also, in the data set on MSI2 transcripts (MD1-derived myoblasts, 150 nM), the “reduction of MSI2 transcript” value was 27%. In addition, the “FC miR-7 expression respect to MD1, Low concentration” value with miR-7 (ASO 30 nM, Ro 08-2750 10 μM, siRNA 100 nM) was found to be 1.49 fold. The “FC miR-7 expression respect to MD1, High concentration” value with miR-7 (ASO 150 nM) is recorded as 1.72* fold. Moreover, the TGFBR1 expression entry with TGFBR1 is listed as “behaved the opposite”. The “fusion capacity (fusion index and diameter)” value with MD1 TDMs is on record as “significant rescue”. Further, the AKT-P/AKT ratio entry in the data set with AKT was “robust increase”. In the data set with LC3, the “LC3 dots per unit of area” value was “significant decrease”. The ATG5 expression result in data set [1] is reported as “significantly reduced”. This substance also gave a TC10 in the data set with Human CNT myotubes of 31.2 nM.
